Consider two compounds from patent US20130089502A1, “PET RADIOPHARMACEUTICALS FOR DIFFERENTIAL DIAGNOSIS BETWEEN BILATERAL AND UNILATERAL CONDITIONS OF PRIMARY HYPERALDOSTERONISM” (UNIVERSITAT DES SAARLANDES, priority 2010, published 2013).

The target of test [1] is T1, human CYP11B2 (aldosterone synthase) (Homo sapiens, UniProt P19099).
T1 construct: expressed in transfected cells; host or cells: Y1 cells
T1 sequence (P19099 25-503): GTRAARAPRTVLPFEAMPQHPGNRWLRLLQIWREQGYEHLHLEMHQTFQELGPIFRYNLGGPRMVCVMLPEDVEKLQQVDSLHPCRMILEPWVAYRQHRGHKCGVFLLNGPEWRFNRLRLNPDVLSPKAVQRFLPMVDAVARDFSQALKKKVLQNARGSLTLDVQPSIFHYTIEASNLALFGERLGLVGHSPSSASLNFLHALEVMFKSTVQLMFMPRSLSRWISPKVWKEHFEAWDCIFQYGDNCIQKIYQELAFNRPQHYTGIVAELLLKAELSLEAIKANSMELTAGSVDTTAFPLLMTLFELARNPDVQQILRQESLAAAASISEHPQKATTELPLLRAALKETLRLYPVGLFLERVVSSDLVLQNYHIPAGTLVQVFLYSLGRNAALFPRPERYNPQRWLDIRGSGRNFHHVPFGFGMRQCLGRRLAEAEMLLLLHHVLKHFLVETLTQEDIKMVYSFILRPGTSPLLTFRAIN
Description: Inhibition of human CYP11B2 (aldosterone synthase) expressed in Y1 cells. The class given is cell-based. The conditions noted are these: hsCYP11B2-expressing Y1 cells; substrate 1 μM; inhibitor 0.1 nM-10 μM; 48 hours incubation. How it is done:
(§1) Several non-radioactive fluorinated analogs of the above radioactive tracers were prepared for testing affinity for CYP11B2 (aldosterone synthase), expressed as IC50, and selectivity for CYP11B2 over CYP11B1 (11β-hydroxylase), referred to herein as the selectivity factor, in vitro as follows:
(§2) To conduct in vitro testing of nonradioactive compounds 1a*, 1b*, 1j*, 2a*, 2c*, 2d*, and 2e* to determine IC50 values for inhibition of CYP11B1 and CYP11B2, human CYP11B1 and CYP11B2 enzymes were expressed in Y1 cells using liposome/lipid-mediated DNA transfection. To evaluate CYP11B1 and CYP11B2 inhibition, hsCYP11B1- and hsCYP11B2-expressing Y1 cells were subcultured on 6-well plates (0.5×10^6 cells/well) in 2 ml of culture medium. The enzyme reaction was started after 24 hours by the addition of 1 ml culture medium containing either 11-deoxycortisol (RSS) or 11-deoxycorticosterone (DOC) as substrate and the corresponding inhibitor. RSS and DOC were dissolved in ethanol to a final test concentration of 1 μM. For determination of IC50 values, the inhibitors were added to the culture medium at concentrations between 0.1 nM-10 μM and incubated for 48 hours. Cells which were treated in the same way but without inhibitors, served as controls. As further controls, untransfected Y1 cells were also incubated with RSS and DOC, respectively. […]

Test [2] deals with T2, human CYP11B1 (11β-hydroxylase) (Homo sapiens, UniProt P15538).
T2 construct: expressed in transfected cells; host or cells: Y1 cells
T2 sequence (P15538 25-503): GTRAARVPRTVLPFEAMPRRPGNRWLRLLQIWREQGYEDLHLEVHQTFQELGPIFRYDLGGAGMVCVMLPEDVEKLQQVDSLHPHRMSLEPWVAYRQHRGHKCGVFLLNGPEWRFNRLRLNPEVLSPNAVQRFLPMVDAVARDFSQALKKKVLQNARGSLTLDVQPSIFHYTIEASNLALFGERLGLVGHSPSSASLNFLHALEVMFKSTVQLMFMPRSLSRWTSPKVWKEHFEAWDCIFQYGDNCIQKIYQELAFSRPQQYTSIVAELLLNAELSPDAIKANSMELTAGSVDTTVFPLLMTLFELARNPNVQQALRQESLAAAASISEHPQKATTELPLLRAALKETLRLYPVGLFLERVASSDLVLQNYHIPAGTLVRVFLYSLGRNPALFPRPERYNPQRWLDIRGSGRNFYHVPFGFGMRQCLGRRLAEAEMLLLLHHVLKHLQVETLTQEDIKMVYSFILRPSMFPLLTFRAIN
The test is described as follows: Inhibition of human CYP11B1 expressed in Y1 cells, used for the selectivity factor versus CYP11B2. The class given is cell-based. As to conditions: ratio of IC50 values in hsCYP11B1- and hsCYP11B2-expressing Y1 cells; 48 hours incubation. How it is done: as §1, §2

In test [1], `COc1ccc2cc(-c3cncc(OCCF)c3)ccc2c1` [Compound 1a, 3-(6-methoxy-2-naphthyl)-5-(2-fluoroethoxy)pyridine] registered an IC50 of 6.5 ± 3.8 nM. Also, the “Selectivity Factor (IC50 CYP11B1/IC50 CYP11B2)” value in test [2] is reported as 104.
On to `FCCOc1ccc2cc(-c3cncc4ccccc34)ccc2c1` [Compound 1j], for which it took 15.8 ± 5.1 nM to reach half-maximal inhibition in test [1] (IC50). In addition, in test [2], the “Selectivity Factor (IC50 CYP11B1/IC50 CYP11B2)” value is more than 100.
